The NIST ThermoML archive (doi:10.1021/je8008254)
Where “and” joins values, the source holds several entries; their conditions need not be identical. Identical values can stand only once.

What was measured:
[1] = xn = mol fraction of the nth substance listed; conditions: 101 kPa, Liquid
[2] = for mass density / viscosity: 101 kPa, Liquid

CCCO [propan-1-ol] + CCCCn1cc[n+](C)c1.N#C[S-]
[1], x2 = 0
Conditions	mass density [kg/m3]	viscosity [mPa·s]
298.15 K	799.52	1.94
308.15 K	791.41	1.54
318.15 K	783.15	1.24
328.15 K	774.66	1.02
338.15 K	765.91	0.842
348.15 K	756.84	0.71

CCO [ethanol] + CCCCn1cc[n+](C)c1.N#C[S-]
[1], x2 = 0
Conditions	mass density [kg/m3]	viscosity [mPa·s]
298.15 K	785.17	1.09
308.15 K	776.49	0.912
318.15 K	767.67	0.774
328.15 K	758.65	0.664
338.15 K	749.35	0.589
348.15 K	739.75	0.512

CO [methanol] + CCCCn1cc[n+](C)c1.N#C[S-]
[1], x2 = 0
Conditions	mass density [kg/m3]	viscosity [mPa·s]
298.15 K	786.64	0.577
308.15 K	777.15	0.525
318.15 K	767.59	0.481
328.15 K	757.83	0.443

CO [methanol]
[2]
Conditions	mass density [kg/m3]	viscosity [mPa·s]
298.15 K	786.64	0.577
308.15 K	777.15	0.525
318.15 K	767.59	0.481
328.15 K	757.83	0.443

CCCO [propan-1-ol]
[2]
Conditions	mass density [kg/m3]	viscosity [mPa·s]
298.15 K	799.52	1.94
308.15 K	791.41	1.54
318.15 K	783.15	1.24
328.15 K	774.66	1.02
338.15 K	765.91	0.842
348.15 K	756.84	0.71

CCCCn1cc[n+](C)c1.N#C[S-] [1-butyl-3-methylimidazolium thiocyanate]
[2]
Conditions	mass density [kg/m3]	viscosity
298.15 K	1069.79	51.7 mPa·s
308.15 K	1063.89	34.9 mPa·s
318.15 K	1058.02	24.2 mPa·s
328.15 K	1052.19	16.7 mPa·s
338.15 K	1046.43	12.73 mPa·s and 12.7 mPa·s
348.15 K	1040.7	9.98 mPa·s

Conditions	Glass transition temperature [°C]
[2], Glass, DTA	-91.5

CCO [ethanol]
[2]
Conditions	mass density [kg/m3]	viscosity [mPa·s]
298.15 K	785.17	1.09
308.15 K	776.49	0.912
318.15 K	767.67	0.774
328.15 K	758.65	0.664
338.15 K	749.35	0.589
348.15 K	739.75	0.512

CCCCn1cc[n+](C)c1.N#C[S-] [1-butyl-3-methylimidazolium thiocyanate] + CCO
[1]
Conditions	mass density [kg/m3]	viscosity [mPa·s]
298.15 K, x1 = 0.0473	829.74	1.48
298.15 K, x1 = 0.1129	876.41	2.07
298.15 K, x1 = 0.1877	916.69	2.95
298.15 K, x1 = 0.2943	957.41	4.7
298.15 K, x1 = 0.3637	978.05	6.36
298.15 K, x1 = 0.5306	1014.59	11.7
298.15 K, x1 = 0.696	1039.72	19.7
298.15 K, x1 = 0.8114	1052.9	27.4
298.15 K, x1 = 0.9174	1062.78	36.2
298.15 K, x1 = 1	1069.79	51.7
308.15 K, x1 = 0.0473	821.61	1.23
308.15 K, x1 = 0.1129	868.74	1.71
308.15 K, x1 = 0.1877	909.46	2.41
308.15 K, x1 = 0.2943	950.56	3.77
308.15 K, x1 = 0.3637	971.37	4.95
308.15 K, x1 = 0.5306	1008.22	8.89
308.15 K, x1 = 0.696	1033.57	14.3
308.15 K, x1 = 0.8114	1046.84	19.2
308.15 K, x1 = 0.9174	1056.82	24.7
308.15 K, x1 = 1	1063.89	34.9
318.15 K, x1 = 0.0473	813.39	1.05
318.15 K, x1 = 0.1129	861.06	1.44
318.15 K, x1 = 0.1877	902.2	2.01
318.15 K, x1 = 0.2943	943.72	3.1
318.15 K, x1 = 0.3637	964.72	3.94
318.15 K, x1 = 0.5306	1001.9	7
318.15 K, x1 = 0.696	1027.47	10.9
318.15 K, x1 = 0.8114	1040.84	14.2
318.15 K, x1 = 0.9174	1050.88	17.8
318.15 K, x1 = 1	–	24.2
328.15 K, x1 = 0.0473	805.05	0.896
328.15 K, x1 = 0.1129	853.27	1.23
328.15 K, x1 = 0.1877	894.91	1.71
328.15 K, x1 = 0.2943	936.87	2.59
328.15 K, x1 = 0.3637	958.11	3.24
328.15 K, x1 = 0.5306	995.61	5.97
328.15 K, x1 = 0.696	1021.4	8.54
328.15 K, x1 = 0.8114	1034.86	10.9
328.15 K, x1 = 0.9174	1044.99	13.4
328.15 K, x1 = 1	1052.19	16.7
338.15 K, x1 = 0.0473	796.53	0.78
338.15 K, x1 = 0.1129	845.44	1.06
338.15 K, x1 = 0.1877	887.57	1.47
338.15 K, x1 = 0.2943	930.03	2.2
338.15 K, x1 = 0.3637	951.47	2.75
338.15 K, x1 = 0.5306	989.36	4.56
338.15 K, x1 = 0.696	1015.36	6.84
338.15 K, x1 = 0.8114	1028.95	8.64
338.15 K, x1 = 0.9174	1039.15	10.5
338.15 K, x1 = 1	1046.43	12.73
348.15 K, x1 = 0.0473	787.85	–
348.15 K, x1 = 0.1129	837.47	0.926
348.15 K, x1 = 0.1877	880.22	1.28
348.15 K, x1 = 0.2943	923.18	1.9
348.15 K, x1 = 0.3637	944.88	–
348.15 K, x1 = 0.5306	983.14	3.8
348.15 K, x1 = 0.696	1009.4	5.58
348.15 K, x1 = 0.8114	1023.05	7.01
348.15 K, x1 = 0.9174	1033.34	8.39
348.15 K, x1 = 1	1040.7	9.98

CCCCn1cc[n+](C)c1.N#C[S-] [1-butyl-3-methylimidazolium thiocyanate] + CO
[1]
Conditions	mass density, 298.15 K [kg/m3]	mass density, 308.15 K [kg/m3]	mass density, 318.15 K [kg/m3]	mass density, 328.15 K [kg/m3]	viscosity, 298.15 K [mPa·s]	viscosity, 308.15 K [mPa·s]	viscosity, 318.15 K [mPa·s]	viscosity, 328.15 K [mPa·s]
x1 = 0.0154	810	800.87	791.7	782.41	0.665	0.593	0.536	0.49
x1 = 0.0531	854.66	846.16	837.63	829.05	0.871	0.765	0.681	0.613
x1 = 0.0964	892.65	884.64	876.63	868.59	1.18	1.02	0.892	0.792
x1 = 0.1443	924.63	917.04	909.43	901.81	1.62	1.39	1.2	1.06
x1 = 0.2076	954.94	947.69	940.47	933.23	2.34	1.96	1.67	1.45
x1 = 0.3602	1001.45	994.74	988.06	981.43	5.15	4.13	3.33	2.82
x1 = 0.5083	1028.1	1021.68	1015.3	1008.99	9.75	7.55	6.03	4.85
x1 = 0.6227	1041.88	1035.64	1029.43	1023.26	14.5	10.8	8.4	6.68
x1 = 0.7114	1050.29	1044.13	1038.01	1031.94	19.4	14.1	10.7	8.4
x1 = 0.8006	1057.46	1051.39	1045.36	1039.38	25.4	18	13.4	10.32
x1 = 0.9046	1064.23	1058.22	1052.27	1046.37	34.1	23.3	16.9	12.78
x1 = 1	1069.79	1063.89	1058.02	1052.19	51.7	34.9	24.2	16.7
